This passage reports EC50 results from US20110053995A1, “BENZENESULFONANILIDE COMPOUND INHIBITORS OF UREA TRANSPORTERS” (THE REGENTS OF THE UNIVERSITY OF CALIFORNIA, priority 2006, published 2011).

The target in the assay is T1, rat UT-A1 (Rattus norvegicus, UniProt Q62668).
T1 construct: expressed in transfected cells; host or cells: MDCK cells (gift of Dr. Jeffrey Sands, Emory University)
T1 sequence (Q62668 1-929): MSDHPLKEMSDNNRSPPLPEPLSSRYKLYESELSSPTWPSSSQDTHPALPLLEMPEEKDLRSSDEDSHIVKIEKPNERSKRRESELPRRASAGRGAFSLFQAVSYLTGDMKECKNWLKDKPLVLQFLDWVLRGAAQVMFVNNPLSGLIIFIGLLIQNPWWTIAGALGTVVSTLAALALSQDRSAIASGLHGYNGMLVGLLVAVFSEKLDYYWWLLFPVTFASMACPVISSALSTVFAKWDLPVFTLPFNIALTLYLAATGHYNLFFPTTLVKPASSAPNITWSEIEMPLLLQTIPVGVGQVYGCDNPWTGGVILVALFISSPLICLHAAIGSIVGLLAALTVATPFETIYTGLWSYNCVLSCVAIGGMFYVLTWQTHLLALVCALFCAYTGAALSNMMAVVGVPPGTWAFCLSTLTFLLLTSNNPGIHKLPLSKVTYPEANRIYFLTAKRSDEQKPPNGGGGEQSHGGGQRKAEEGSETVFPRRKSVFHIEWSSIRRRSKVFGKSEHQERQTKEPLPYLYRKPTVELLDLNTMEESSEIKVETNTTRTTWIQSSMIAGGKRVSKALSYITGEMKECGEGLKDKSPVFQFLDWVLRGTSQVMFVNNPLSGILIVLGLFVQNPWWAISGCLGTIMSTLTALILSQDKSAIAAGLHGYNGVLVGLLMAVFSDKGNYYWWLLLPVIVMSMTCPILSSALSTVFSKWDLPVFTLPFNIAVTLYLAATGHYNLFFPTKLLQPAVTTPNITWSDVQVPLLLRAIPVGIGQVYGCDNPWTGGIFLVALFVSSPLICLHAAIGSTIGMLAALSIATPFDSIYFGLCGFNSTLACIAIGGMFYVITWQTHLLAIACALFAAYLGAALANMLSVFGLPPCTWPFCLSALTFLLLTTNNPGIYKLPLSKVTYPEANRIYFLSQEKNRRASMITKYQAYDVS
The assay is described as follows: UT-A1-facilitated urea flux across MDCK-UT-A1 cell layers. The assay is classed as cell-based. To be noted: forskolin-stimulated MDCK-UT-A1 cells, 15-min time point; read-out: EC50 against rat UT-A1. As for the experimental part:
Concentration-inhibition studies were performed to study the effect of the active mouse UT-B inhibitors on urea transport by UT-A. The amino acid sequences of UT-B and UT-A urea transporter isoforms share significant similarity. The cells used in these studies were MDCK cells that expressed rat UT-A1. MDCK-UT-A1-expressing cells were grown on collagen-coated porous filters until they were electrically tight, at which point 15 mM urea was introduced into buffer bathing the basolateral cell surface.
MDCK cells stably transfected with rat UT-A1 (MDCK-UT-A1) (Fröhlich et al., Am J Physiol. in press; Fröhlich et al., Am. J. Physiol. Cell Physiol. 286:C1264-70 (2004). Epub on Jan. 28, 2004) were generously provided by Dr. Jeffrey Sands (Emory University School of Medicine, Atlanta, Ga.). Cells were grown in Dulbecco's Modified Eagle Medium (DMEM) with bicarbonate and supplemented with 10% fetal bovine serum (FBS), 25 mM HEPES buffer, penicillin G (100 U/mL), streptomycin (100 μg/mL) and hygromycin (500 μg/mL). For determining urea flux, cells were grown on 12-mm collagen-coated TRANSWELL inserts (0.4 μm pore size; Costar) as described (Fröhlich et al., Am J Physiol. in press; Fröhlich et al., 2004, supra). The TRANSWELL inserts were incubated in hygromycin-free medium for 1 hr in a 5% CO2 tissue culture incubator (37° C.), and then 2×10^5 cells/cm^2 were loaded onto each insert. Cells were used after culturing the cells for 4 days in hygromycin-free medium, at which time they formed tight monolayers (transepithelial resistance 500-600 Ω·cm^2).
UT-A1-facilitated urea flux in the basolateral-to-apical direction across unstimulated and forskolin-stimulated MDCK-UT-A1 cell layers was measured in response to a 15-mM urea gradient. Experiments were carried out in 12-well plates in which PBS, containing either DMSO vehicle or forskolin, with or without UT-B inhibitor, added to both the apical-facing (0.2 mL) and basal-facing (1 mL) surfaces of cells on the porous filters. Cultures were incubated in the absence of urea for 30 min at 37° C. Then, the basal-facing solution was replaced with PBS (containing same components) with 15 mM urea. Five μL samples of apical fluid were collected at specified times during incubation at 37° C., and urea concentration was determined using a commercial kit based on chromogenic urea complexation at 520-nm wavelength (Quantichrom™ Urea Assay Kit, BioAssay Systems, Hayward, Calif.). Forskolin (10 μM), with or without UT-B transport inhibitors, was added from 1000× DMSO stock solutions (0.2% final DMSO content). Inhibition of UT-A1-mediated transport was defined as % inhibition=100% (Aforsk−Atest)/(Aforsk−Aphlor). Aforsk, and Aphlor were averaged absorbance values (at 520 nm) for cultures treated with forskolin and forskolin+phloretin, respectively, and Atest were values from cultures treated with forskolin+test compound.

As to `NC(=O)CSc1oc(-c2ccccc2)nc1S(=O)(=O)c1ccc(Br)cc1` [ureainh-101], the EC50 (in general, the concentration that produces a half-maximal response) is roughly 1.2 µM. On to `Cc1ccc(Nc2nnc(-c3ccc(C(N)=O)cc3)c3ccccc23)cc1` [ureainh-302], for which the concentration for a half-maximal effect (EC50) is roughly 15 µM.
